# According to patent US11072634B2, “Inhibitors of transglutaminases” (Zedira GmbH, priority 2016, dated 2021):
# Experiments:
# [1] = target: T1, recombinant human tissue transglutaminase (rhTG2) (Homo sapiens, UniProt P21980); assay: Inhibition of rec. human tissue transglutaminase (fluorescence, Abz-APE(CAD-DNP)QEA-OH); type: biochemical
# T1 construct: purchased Zedira 1022 (so in the source); T022)
# T1 sequence (P21980 1-687): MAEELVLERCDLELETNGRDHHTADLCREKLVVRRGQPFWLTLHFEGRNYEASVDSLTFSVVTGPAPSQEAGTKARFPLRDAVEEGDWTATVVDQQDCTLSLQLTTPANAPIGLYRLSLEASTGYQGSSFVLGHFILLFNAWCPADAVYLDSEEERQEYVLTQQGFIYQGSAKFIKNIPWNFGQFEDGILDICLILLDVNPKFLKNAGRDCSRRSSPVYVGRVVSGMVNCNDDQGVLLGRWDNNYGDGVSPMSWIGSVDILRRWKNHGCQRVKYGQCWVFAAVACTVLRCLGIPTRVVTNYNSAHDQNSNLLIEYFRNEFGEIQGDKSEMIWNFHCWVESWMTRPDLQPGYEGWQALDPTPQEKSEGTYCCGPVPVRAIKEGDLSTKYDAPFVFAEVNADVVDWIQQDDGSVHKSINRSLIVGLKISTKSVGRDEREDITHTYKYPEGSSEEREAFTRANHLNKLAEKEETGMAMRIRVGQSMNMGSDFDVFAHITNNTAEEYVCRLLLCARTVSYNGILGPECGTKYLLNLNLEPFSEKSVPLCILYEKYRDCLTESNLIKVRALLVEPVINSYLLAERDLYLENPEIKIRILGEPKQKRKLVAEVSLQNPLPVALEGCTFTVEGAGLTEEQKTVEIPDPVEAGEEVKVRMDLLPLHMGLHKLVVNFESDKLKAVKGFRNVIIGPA
# Summary of the method: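 His6-rhTG2 in a master mix (50 mM Tris-HCl pH 7.4, 7.5 mM CaCl2, 150 mM NaCl, 5 mM DTT, 13.4 mM glycine methylester, 50 μM Abz-APE(CAD-DNP)QEA-OH) was added to serially diluted inhibitor. Fluorescence (ex 313/em 418 nm) was followed at 37 °C for 20 min. IC50 came from the 10–20 min slope relative to the 2% DMSO control.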
# NRK52E cells = assay: Extracellular matrix protein deposition of NRK52E cells (DC-protein-assay); type: cell-based, Rattus norvegicus; details: hyperglycemic glucose concentrations
# Experimental: Fibrosis is a hallmark in diabetic nephropathy and chronic kidney diseases. Proximal tubular epithelial cells show increased TG2 activity and increased extracellular matrix proteins (ECM) accumulation under hyperglycemic conditions. ECM accumulation is a hall mark of fibrosis. […] TG2-activity and ECM-accumulation was measured. Rattus norvegicus kidney derived cell line NRK52E was grown at 37° C. in a humidified atmosphere at 5% (v/v) CO2 in DMEM (Dulbecco's modified Eagle's medium) containing 100 μg/mL streptomycin, 100 units/ml penicillin, […], and 10% (v/v) fetal calf serum. For simulation of normal physiological conditions 6 mM D-glucose were added to the medium, while addition of 24 mM and 36 mM D-glucose simulated hyperglycemic conditions. Reversible TG2 inhibitor E06 in the concentrations indicated in FIG. 1A was added at the time of plating to the medium. Reversible TG2 inhibitor E22 in the concentrations indicated in FIG. 2A was added at the time of plating to the medium.
# For the determination of extracellular matrix proteins (ECM) deposition, cells grown in 10 cm Petri-dishes were removed with 1 mL sodium deoxycholate (0.1%) -EDTA (2 mM)-solution. ECM proteins remaining on the plate were solubilized by digestion with trypsin (0.2 mg/mL) -EDTA (2 mM) solution. […] Protein concentration was determined using the DC-protein-assay (BioRad, #5000111).
# [2] = tested on: Huh7 (human liver carcinoma cell line); assay: Cell Proliferation ELISA, BrdU; type: cell-based; details: highest concentration 1 mM
# Experimental: (§1) The following cell lines are used for determination of cytotoxicity: • CaCo2 (human colon carcinoma cell line) • Huh7 (human liver carcinoma cell line).
# (§2) Cells are cultivated in DMEM/10% FCS at 37° C. and 5% CO2 in a 96 well plate with an initial seeding density of 2×10^4 cells/well.
# (§3) Transglutaminase inhibitors are added to the cells with final concentrations from 0.1 μM to 1 mM one hour after seeding. The different inhibitor dilutions are prepared in DMSO, resulting in a final concentration of 1% (v/v) DMSO in every well (2 μl inhibitor in 200 μl cell culture medium). Cycloheximide (2.5 μg/ml) and Camptothecin (0.2 μg/ml) are used as control compounds. All measurements are performed in triplicates.
# (§4) Determination of proliferation using Cell Proliferation ELISA, BrdU (Roche, Cat. No. 11647229001).
# (§5) After 24 h of incubation with inhibitors or controls, BrdU is added to the cells. After further incubation for 18 h, the cells are fixed and cellular DNA becomes denatured. A monoclonal antibody (conjugated with peroxidase) raised against BrdU is added to the wells and binds to BrdU which is incorporated into the DNA. Substrate solution is added and absorbance at 450 nm is recorded. Further analysis is performed according to the manufacturer's protocol.
# [3] = tested on: CaCo2 (human colon carcinoma cell line); assay: Cell Proliferation ELISA, BrdU; type: cell-based; details: highest concentration 1 mM
# Experimental: as §1, §2, §3, §4, §5
SMILES,"IC50 ([1]; Table 2, TG2 inhibitors) [nM]",increase of ECM (extracellular matrix protein deposition) (NRK52E cells),"Cytotoxicity concentration (>10% deviation from negative control), BrdU, Huh-7 [2] [mM]","Cytotoxicity concentration (>10% deviation from negative control), BrdU, Caco2 [3] [mM]","IC50 ([1]; Table 1, TG2 inhibitors) [nM]"
"CCCCCNC(=O)C(=O)CC[C@H](NC(=O)[C@@H]1CCCN1C(C)=O)C(=O)Nc1cccn(CC(=O)NCC(CC)CC)c1=O [Compound E22, (S)-2-((S)-1-acetylpyrrolidine-2-carboxamido)-N1-(1-(2-(2-ethylbutylamino)-2-oxoethyl)-2-oxo-1,2-dihydropyridin-3-yl)-5-oxo-N6-pentylhexanediamide]",85,reduced in a dose dependent manner,,,
"CC(=O)N1CCC[C@H]1C(=O)N[C@@H](CCC(=O)C(N)=O)C(=O)N1CCN(c2ncccc2C)CC1 [Compound E07, (S)-1-acetyl-N—((S)-6-amino-1-(4-(3-methylpyridin-2-yl)piperazin-1-yl)-1,5,6-trioxohexan-2-yl)pyrrolidine-2-carboxamide]",,,>1,>1,100
"COC(=O)[C@H](CC(C)C)NC(=O)[C@@H]1CCCN1C(=O)[C@@H](NC(=O)[C@H](CCC(=O)C(N)=O)NC(=O)OCc1ccccc1)C(C)C [Compound E02, (S)-methyl 2-((S)-1-((S)-2-((S)-6-amino-2-(benzyloxycarbonylamino)-5,6-dioxo-hexanamido)-3-methylbutanoyl)pyrrolidine-2-carboxamido)-4-methylpentanoate]",,,>1,>1,70
"CC(=O)N[C@@H](CCC(=O)C(N)=O)C(=O)N1CCN(c2ccccc2Cl)CC1 [Compound E06, (S)-5-acetamido-6-(4-(2-chlorophenyl)piperazin-1-yl)-2,6-dioxohexanamide]",,reduced in a dose dependent manner,>1,>1,100
